{"source": "patent US20230101768A1", "about": "“METHOD TO TREAT MANGANESE TOXICITY AND MANGANESE-INDUCED PA[…] HUMANS” (priority 2021, published 2023)", "key": {"DMT1": {"tested_on": "DMT1", "conditions": "HepG2 cells, 250 μM manganese for 4 h; expression without manganese normalized to 1; mean±SE, N=4", "experimental": "(§1) Cells were treated with 0 or 250 μM manganese for 4 h, and gene expression was analyzed by qRT-PCR. For each transcript, expression without manganese treatment was normalized to 1. N=4. Data are mean±SE.\n(§2) Cell culture. HepG2 cells were grown in Eagle's modified essential medium (MEM; Corning) with 10% fetal bovine serum (Atlanta Biologicals), 100 IU/ml penicillin (Corning), and 100 μg/ml streptomycin (Corning). 293T cells were maintained in Dulbecco's modified essential medium/F12 (Thermo) supplemented with 10% fetal bovine serum, penicillin (100 IU/ml), and streptomycin (100 μg/ml). Human primary hepatocytes were purchased from XenoTech (catalog #HPCH10+) and cultured according to protocols provided by the supplier.\n(§3) manganese and drug treatments in cell culture. Cells were treated with indicated levels of manganese as manganeseCl2.4H2O (Fisher). Vehicle for manganese treatment was water. Prolyl hydroxylase inhibitors roxadustat (Caymen), vadadustat, and molidustat (both APE-Bio); the HIFα inhibitor LW6 (Selleckchem); the proteasomal inhibitor MG132 (Sigma); and the transcription inhibitor actinomycin D (Sigma) were dissolved in DMSO. […] Vehicle treatment for all drugs was DMSO.\n(§4) Quantitative RT-PCR assays. RNA extraction from HepG2 cells and mouse tissue, reverse transcription to cDNA, and qRT-PCR analyses were performed as described by us previously (47, 50). For analyses of mouse brain samples, a part of the midbrain, including the basal ganglia, was used. Transcript levels were quantified using the ΔΔCT method with 18S (in mice) or TBP (in HepG2 cells) as the internal control, also as described by us previously (47, 50)."}, "FPN": {"tested_on": "FPN", "conditions": "HepG2 cells, 250 μM manganese for 4 h; expression without manganese normalized to 1; mean±SE, N=4", "experimental": "as §1, §2, §3, §4"}, "SLC39A14": {"tested_on": "SLC39A14", "conditions": "HepG2 cells, 250 μM manganese for 4 h; expression without manganese normalized to 1; mean±SE, N=4", "experimental": "as §1, §2, §3, §4"}, "SLC39A8": {"tested_on": "SLC39A8", "conditions": "HepG2 cells, 250 μM manganese for 4 h; expression without manganese normalized to 1; mean±SE, N=4", "experimental": "as §1, §2, §3, §4"}, "SPCA1": {"tested_on": "SPCA1", "conditions": "HepG2 cells, 250 μM manganese for 4 h; expression without manganese normalized to 1; mean±SE, N=4", "experimental": "as §1, §2, §3, §4"}, "SLC30A10 [1]": {"tested_on": "SLC30A10", "type": "in vivo, mice", "conditions": "oral manganese ~15 mg/kg daily from birth until 8 weeks", "experimental": "A well-characterized drinking water-based manganese exposure regimen was used to model human environmental manganese exposure by providing mice with ˜50 mg manganeseCl2.4H2O/kg body weight daily (˜15 mg absolute manganese/kg per day) from birth until 8 weeks of age. This, and related similar, dosing regimens: 1) approximate the increase in manganese exposure in humans consuming well water contaminated with 1.5 mg manganese/L, which is the median well water concentration associated with neurological deficits in children; 2) increase brain manganese levels by ˜2-3 fold, similar to human patients; 3) produce measurable neurobehavioral deficits without overt toxicity; and 4) model exposure to manganese in developmentally-sensitive early-life and adolescent periods (11). Pre-weaning manganese was delivered by pipette directly into the mouth, and post-weaning manganese was delivered in drinking water using procedures described in detail in ref. (11). In brief, pre-weaning dosing was adjusted to each animal's body weight. For this, a stock solution of 69.2 mg absolute manganese/ml prepared in milliQ water was diluted in milliQ water containing 2.5% (wt/vol) of the natural sweetener Stevia (to facilitate intake by pups), and the required manganese amount (0.2 μl manganese stock/g body weight) was delivered in a dose of ˜5-10 μl/animal. For post-weaning exposure, a 27.7 mg absolute manganese/ml stock solution was prepared in water and diluted to 0.069 mg absolute manganese/ml in drinking water, which provided mice with ˜15 mg absolute manganese/kg per day based on a daily water intake of ˜2-5 ml/mouse depending on age.\n(§5) To assay for the protective effect of roxadustat, animals were exposed to roxadustat or vehicle with or without manganese in drinking water from ˜4 weeks of age. Treatment lasted for 4 weeks from initiation. Roxadustat (Selleckchem) was prepared as a 50 mg/ml stock solution in DMSO, then diluted to 1 mg/ml in sterile phosphate buffered saline (PBS), and delivered by daily i.p. injection at 10 mg/kg. Vehicle was 2% DMSO in PBS. For this experiment, drinking water manganese levels were adjusted to 0.138 mg absolute manganese/ml so that animals received ˜30 mg absolute manganese/kg daily. A higher level of manganese was used because exposure was initiated after weaning, which was necessary because daily i.p. injections for roxadustat delivery were not possible in the pre-weaning period.\n(§6) Animals were euthanized using carbon dioxide and tissue dissected for qRT-PCR or ICPMS analyses as described by us previously (50).\nas §4"}, "C57BL/6J mice [2]": {"tested_on": "C57BL/6J mice", "conditions": "C57BL/6J mice, open field 6-15 min interval, ~30 mg manganese/kg daily in drinking water, 4 weeks", "experimental": "as §5\nOpen-field assays for neurobehavior assessment. Open-field analyses were performed as described in a recent publication (51)."}, "C57BL/6J mice [3]": {"tested_on": "C57BL/6J mice", "conditions": "~30 mg manganese/kg daily in drinking water, 4 weeks", "experimental": "as §5, §6\nInductively coupled plasma mass spectrometry. Metal measurements using ICP-MS were performed exactly as described by us previously (47, 50, 51, 99)."}, "SLC30A10 [4]": {"tested_on": "SLC30A10", "conditions": "HepG2 cells, 250 μM manganese, immunoblot", "experimental": "Immunoblots. HepG2 cells were cultured in 35 mm dishes, treated with or without manganese, MG132 and/or prolyl hydroxylase inhibitors, and scrapped using 200 μl of RIPA buffer (50 mM Tris-HCl, pH7.4; 150 mM NaCl; 1Mm EDTA; 1% Triton; 0.25% sodium deoxycholate; protease inhibitors cocktail (Thermo A32953)). Whole-cell lysates were prepared by adding loading buffer (50 mM Tris-HCl, pH 7.4; 2% sodium dodecyl sulfate; 10% glycerol, 0.1 M dithiothreitol; 0.01% (weight/volume) bromophenol blue) and boiling the samples for 5 min. Equal volumes of samples were loaded per lane. Further processing was as described by us previously (47). Images were quantified using ImageQuant TL software (GE).\nAntibodies and chemicals. The inventors used the following commercial primary antibodies in this study: rabbit polyclonal anti-HIF1α (Abcam, Ab2185), rabbit polyclonal anti-HIF2α (Novus, NB100-122), rabbit monoclonal anti-HIF1α proline 564 (Cell signaling, 3434S), and mouse monoclonal anti-tubulin (Sigma, T5168). […] Sources of chemicals not provided elsewhere were Thermo Fisher Scientific or Sigma-Aldrich."}}, "note": "Read-outs that look alike come from different tables or passages of the source."}
{"smiles": "O.O.O.O.[Cl][Mn][Cl]", "note": "[manganese, manganeseCl2.4H2O]", "values": [{"measurement": "Relative expression after manganese, DMT1 transcript", "setting": "DMT1", "value": "0.92 ± 0.03"}, {"measurement": "Relative expression after manganese, FPN transcript", "setting": "FPN", "value": "0.77 ± 0.21"}, {"measurement": "Relative expression after manganese, SLC39A14 transcript", "setting": "SLC39A14", "value": "0.71 ± 0.02"}, {"measurement": "Relative expression after manganese, SLC39A8 transcript", "setting": "SLC39A8", "value": "0.87 ± 0.09"}, {"measurement": "Relative expression after manganese, SPCA1 transcript", "setting": "SPCA1", "value": "1.00 ± 0.05"}, {"measurement": "SLC30A10 levels in intestines", "setting": "SLC30A10 [1]; 129S4/SvJaeJ mice", "value": "not"}, {"measurement": "SLC30A10 levels in liver", "setting": "SLC30A10 [1]; 129S4/SvJaeJ mice", "value": "increased"}, {"measurement": "SLC30A10 levels in intestines", "setting": "SLC30A10 [1]; C57BL/6J mice", "value": "increase"}, {"measurement": "SLC30A10 levels in liver", "setting": "SLC30A10 [1]; C57BL/6J mice", "value": "not"}, {"measurement": "Expression of SLC30A10 in the brain", "setting": "SLC30A10 [1]; either strain (129S4/SvJaeJ, C57BL/6J)", "value": "did not impact"}, {"measurement": "Vertical (rearing) movement versus vehicle-treated controls, manganese-only", "setting": "C57BL/6J mice [2]", "value": "reduced"}, {"measurement": "Blood manganese after manganese treatment", "setting": "C57BL/6J mice [3]", "value": "trend towards an increase"}, {"measurement": "Brain manganese levels, main effect of manganese treatment", "setting": "C57BL/6J mice [3]", "value": "increasing"}, {"measurement": "SLC30A10 protein levels after manganese", "setting": "SLC30A10 [4]", "value": "increased"}]}
